One block for each compound: values may come before it.
Key:
[1] = biological target: T1, Bifunctional dihydrofolate reductase-thymidylate synthase (Toxoplasma gondii, UniProt Q07422)
T1 sequence (Q07422 whole entry): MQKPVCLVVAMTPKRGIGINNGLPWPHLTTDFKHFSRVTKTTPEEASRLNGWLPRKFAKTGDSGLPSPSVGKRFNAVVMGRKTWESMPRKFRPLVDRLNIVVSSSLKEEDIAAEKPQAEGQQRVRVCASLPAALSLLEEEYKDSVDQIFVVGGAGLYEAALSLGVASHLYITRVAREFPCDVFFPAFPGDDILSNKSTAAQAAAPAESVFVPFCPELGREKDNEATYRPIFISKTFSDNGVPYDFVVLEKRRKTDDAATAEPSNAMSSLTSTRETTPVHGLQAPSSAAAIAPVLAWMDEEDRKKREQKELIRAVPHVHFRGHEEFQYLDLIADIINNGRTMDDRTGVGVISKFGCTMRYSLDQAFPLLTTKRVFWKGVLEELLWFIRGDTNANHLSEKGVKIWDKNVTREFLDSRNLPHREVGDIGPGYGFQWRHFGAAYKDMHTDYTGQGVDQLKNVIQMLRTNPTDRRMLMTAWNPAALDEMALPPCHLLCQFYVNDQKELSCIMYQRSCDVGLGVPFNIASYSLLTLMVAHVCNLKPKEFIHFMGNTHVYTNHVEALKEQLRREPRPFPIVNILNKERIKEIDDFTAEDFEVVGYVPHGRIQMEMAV

Dihydrofolate reductase [2] = biological target: T2, Dihydrofolate reductase (Mycobacterium avium, UniProt O30463)
T2 sequence (O30463 whole entry): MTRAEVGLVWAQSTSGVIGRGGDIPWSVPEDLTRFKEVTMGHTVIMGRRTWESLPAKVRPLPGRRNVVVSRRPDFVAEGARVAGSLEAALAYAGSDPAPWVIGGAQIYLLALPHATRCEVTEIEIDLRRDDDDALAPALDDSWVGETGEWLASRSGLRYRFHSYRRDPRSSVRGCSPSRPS

Dihydrofolate reductase [3] = biological target: T3, Dihydrofolate reductase (Pneumocystis carinii, UniProt P16184)
T3 sequence (P16184 whole entry): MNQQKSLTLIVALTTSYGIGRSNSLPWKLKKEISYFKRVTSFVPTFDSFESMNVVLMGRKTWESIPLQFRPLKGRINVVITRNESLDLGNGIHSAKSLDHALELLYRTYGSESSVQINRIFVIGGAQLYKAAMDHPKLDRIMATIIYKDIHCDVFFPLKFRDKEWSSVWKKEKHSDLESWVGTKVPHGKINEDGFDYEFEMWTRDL
Description: Concentration required to inhibit the Pneumocystis carinii Dihydrofolate reductase by 50% was determined; Range: 0.88-1.2

Dihydrofolate reductase [4] = biological target: T4, Dihydrofolate reductase (Rattus norvegicus, UniProt Q920D2)
T4 sequence (Q920D2 whole entry): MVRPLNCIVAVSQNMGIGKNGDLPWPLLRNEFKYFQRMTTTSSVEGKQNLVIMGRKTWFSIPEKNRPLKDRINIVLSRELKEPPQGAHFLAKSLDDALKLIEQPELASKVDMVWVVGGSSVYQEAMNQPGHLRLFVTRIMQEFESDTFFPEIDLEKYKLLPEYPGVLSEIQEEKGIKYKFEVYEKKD

[5] = biological target: T1, Bifunctional dihydrofolate reductase-thymidylate synthase; assay: Concentration required to inhibit the Toxoplasma gondii Dihydrofolate reductase by 50% was determined; Range: 23-30
Dihydrofolate reductase [6] = biological target: T2, Dihydrofolate reductase; assay: Concentration required to inhibit the Mycobacterium avium Dihydrofolate reductase by 50% was determined; Range: 1.2-1.4
Dihydrofolate reductase [7] = biological target: T3, Dihydrofolate reductase; remark: listed apart in the source
Dihydrofolate reductase [8] = biological target: T4, Dihydrofolate reductase; assay: Concentration required to inhibit the rat liver Dihydrofolate reductase by 50% was determined; Range: 370-440
[9] = Selectivity index was determined by the ratio for IC50 of rat liver DHFR to the IC50 of Mycobacterium avium DHFR; Range: 260-370
[10] = Selectivity index was determined by the ratio for IC50 of rat liver DHFR to the IC50 of Pneumocystis carinii DHFR; Range: 11-16
[11] = Selectivity index was determined by the ratio for IC50 of rat liver DHFR to the IC50 of Toxoplasma gondii DHFR; Range: 12-19
Dihydrofolate reductase [12] = biological target: T2, Dihydrofolate reductase; assay: Concentration required to inhibit the Mycobacterium avium Dihydrofolate reductase by 50% was determined
[13] = Selectivity index was determined by the ratio for IC50 of rat liver DHFR to the IC50 of Mycobacterium avium DHFR
[14] = biological target: T1, Bifunctional dihydrofolate reductase-thymidylate synthase; assay: Concentration required to inhibit the Toxoplasma gondii Dihydrofolate reductase by 50% was determined; […]
Dihydrofolate reductase [15] = biological target: T4, Dihydrofolate reductase; assay: Concentration required to inhibit the rat liver Dihydrofolate reductase by 50% was determined; […]
Dihydrofolate reductase [16] = biological target: T3, Dihydrofolate reductase; assay: Concentration required to inhibit the Pneumocystis carinii Dihydrofolate reductase by 50% was determined; Range: 58-110
[17] = Selectivity index was determined by the ratio for IC50 of rat liver DHFR to the IC50 of Toxoplasma gondii DHFR; Range: 53-113
[18] = Selectivity index was determined by the ratio for IC50 of rat liver DHFR to the IC50 of Mycobacterium avium DHFR; […]
[19] = biological target: T1, Bifunctional dihydrofolate reductase-thymidylate synthase; assay: Concentration required to inhibit the Toxoplasma gondii Dihydrofolate reductase by 50% was determined; Range: 20-23
Dihydrofolate reductase [20] = biological target: T3, Dihydrofolate reductase; assay: Concentration required to inhibit the Pneumocystis carinii Dihydrofolate reductase by 50% was determined; Range: 9.8-12
[21] = Selectivity index was determined by the ratio for IC50 of rat liver DHFR to the IC50 of Toxoplasma gondii DHFR; Range: 55-65
[22] = Selectivity index was determined by the ratio for IC50 of rat liver DHFR to the IC50 of Pneumocystis carinii DHFR; Range: 80-150
[23] = Selectivity index was determined by the ratio for IC50 of rat liver DHFR to the IC50 of Mycobacterium avium DHFR; Range: 140-230
Dihydrofolate reductase [24] = biological target: T2, Dihydrofolate reductase; assay: Concentration required to inhibit the Mycobacterium avium Dihydrofolate reductase by 50% was determined; Range: 6.5-8.0
Dihydrofolate reductase [25] = biological target: T4, Dihydrofolate reductase; assay: Concentration required to inhibit the rat liver Dihydrofolate reductase by 50% was determined; Range: 1100-1500
[26] = Selectivity index was determined by the ratio for IC50 of rat liver DHFR to the IC50 of Toxoplasma gondii DHFR
[27] = biological target: T1, Bifunctional dihydrofolate reductase-thymidylate synthase; assay: Concentration required to inhibit the Toxoplasma gondii Dihydrofolate reductase by 50% was determined; Range: 25-30
Dihydrofolate reductase [28] = biological target: T2, Dihydrofolate reductase; assay: Concentration required to inhibit the Mycobacterium avium Dihydrofolate reductase by 50% was determined; Range: 3.6-4.4
Dihydrofolate reductase [29] = biological target: T3, Dihydrofolate reductase; assay: Concentration required to inhibit the Pneumocystis carinii Dihydrofolate reductase by 50% was determined; Range: 19-29
Dihydrofolate reductase [30] = biological target: T4, Dihydrofolate reductase; assay: Concentration required to inhibit the rat liver Dihydrofolate reductase by 50% was determined; Range: 1100-1200
[31] = Selectivity index was determined by the ratio for IC50 of rat liver DHFR to the IC50 of Mycobacterium avium DHFR; Range: 250-330
[32] = Selectivity index was determined by the ratio for IC50 of rat liver DHFR to the IC50 of Pneumocystis carinii DHFR; Range: 12-63
[33] = Selectivity index was determined by the ratio for IC50 of rat liver DHFR to the IC50 of Toxoplasma gondii DHFR; Range: 37-48
[34] = biological target: T1, Bifunctional dihydrofolate reductase-thymidylate synthase; assay: Concentration required to inhibit the Toxoplasma gondii Dihydrofolate reductase by 50% was determined
Dihydrofolate reductase [35] = biological target: T4, Dihydrofolate reductase; assay: Concentration required to inhibit the rat liver Dihydrofolate reductase by 50% was determined
[36] = Selectivity index was determined by the ratio for IC50 of human DHFR to the IC50 of Mycobacterium avium DHFR
[37] = biological target: T1, Bifunctional dihydrofolate reductase-thymidylate synthase; remark: listed apart in the source
Description: Concentration required to inhibit the Toxoplasma gondii Dihydrofolate reductase by 50% was determined; Range: 8.9-11

Dihydrofolate reductase [38] = biological target: T3, Dihydrofolate reductase; remark: listed apart in the source
Description: Concentration required to inhibit the Pneumocystis carinii Dihydrofolate reductase by 50% was determined; Range: 0.92-1.3

Dihydrofolate reductase [39] = biological target: T4, Dihydrofolate reductase; remark: listed apart in the source
Dihydrofolate reductase [40] = biological target: T2, Dihydrofolate reductase; remark: listed apart in the source
[41] = biological target: T1, Bifunctional dihydrofolate reductase-thymidylate synthase; remark: listed apart in the source
Description: Concentration required to inhibit the Toxoplasma gondii Dihydrofolate reductase by 50% was determined; Range: 12-24

Dihydrofolate reductase [42] = biological target: T2, Dihydrofolate reductase; remark: listed apart in the source
Description: Concentration required to inhibit the Mycobacterium avium Dihydrofolate reductase by 50% was determined; Range: 6.2-11

Dihydrofolate reductase [43] = biological target: T3, Dihydrofolate reductase; assay: Concentration required to inhibit the Pneumocystis carinii Dihydrofolate reductase by 50% was determined; Range: 18-25
Dihydrofolate reductase [44] = biological target: T4, Dihydrofolate reductase; assay: Concentration required to inhibit the rat liver Dihydrofolate reductase by 50% was determined; Range: 250-300
[45] = Selectivity index was determined by the ratio for IC50 of rat liver DHFR to the IC50 of Mycobacterium avium DHFR; Range: 23-48
[46] = Selectivity index was determined by the ratio for IC50 of rat liver DHFR to the IC50 of Pneumocystis carinii DHFR; Range: 10-17
[47] = Selectivity index was determined by the ratio for IC50 of rat liver DHFR to the IC50 of Toxoplasma gondii DHFR; Range: 10-25
[48] = biological target: T1, Bifunctional dihydrofolate reductase-thymidylate synthase; assay: Concentration required to inhibit the Toxoplasma gondii Dihydrofolate reductase by 50% was determined (reported by Hoffman-LaRoche group)
Dihydrofolate reductase [49] = biological target: T5, Dihydrofolate reductase (Homo sapiens, UniProt P00374); assay: Concentration required to inhibit the human Dihydrofolate reductase by 50% was determined
T5 sequence (P00374 whole entry): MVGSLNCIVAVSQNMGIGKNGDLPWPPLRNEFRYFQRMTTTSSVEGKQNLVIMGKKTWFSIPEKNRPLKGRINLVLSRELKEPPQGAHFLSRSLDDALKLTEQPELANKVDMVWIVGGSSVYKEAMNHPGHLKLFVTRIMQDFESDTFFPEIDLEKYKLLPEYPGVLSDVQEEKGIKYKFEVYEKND

Dihydrofolate reductase [50] = biological target: T5, Dihydrofolate reductase; assay: Concentration required to inhibit the human Dihydrofolate reductase by 50% was determined (reported by Hoffman-LaRoche group)

Compound: Nc1nc(N)c2nc(CN3c4ccccc4C=Cc4cc(OCc5ccc(C(=O)O)cc5)ccc43)cnc2n1
IC50 [1]: 22 nM
IC50 (Dihydrofolate reductase [2]): 0.75 nM
IC50 (Dihydrofolate reductase [3]): 1 nM
IC50 (Dihydrofolate reductase [4]): 580 nM

Compound: Nc1nc(N)c2nc(CN3c4ccccc4C=Cc4cc(O)ccc43)cnc2n1
IC50 [5]: 26 nM
IC50 (Dihydrofolate reductase [6]): 1.3 nM
IC50 (Dihydrofolate reductase [7]): 31 nM
IC50 (Dihydrofolate reductase [8]): 410 nM
SI [9]: 320
SI [10]: 13
SI [11]: 16

Compound: CCc1nc(N)nc(N)c1-c1ccc(Cl)c(/N=N/N(CCOC(C)=O)Cc2ccccc2)c1
IC50 (Dihydrofolate reductase [12]): < 1 nM
SI [13]: > 1000

Compound: Nc1nc(N)c2nc(CN3c4ccccc4C=Cc4ccccc43)cnc2n1
IC50 [14]: 39 nM
IC50 (Dihydrofolate reductase [15]): 3000 nM
IC50 (Dihydrofolate reductase [16]): 79 nM
SI [17]: 77
SI [18]: 250

Compound: Nc1nc(N)c2nc(CN3c4ccccc4C=Cc4cc(OCCCCC(=O)O)ccc43)cnc2n1
IC50 [19]: 21 nM
IC50 (Dihydrofolate reductase [20]): 11 nM
SI [21]: 62
SI [22]: 120
SI [23]: 180
IC50 (Dihydrofolate reductase [24]): 7.2 nM
IC50 (Dihydrofolate reductase [25]): 1300 nM

Compound: COc1ccc(OC)c(CCc2cnc3nc(N)nc(N)c3c2C)c1
SI [26]: 98

Compound: Nc1nc(N)c2nc(CN3c4ccccc4C=Cc4cc(OCCC(=O)O)ccc43)cnc2n1
IC50 [27]: 28 nM
IC50 (Dihydrofolate reductase [28]): 4 nM
IC50 (Dihydrofolate reductase [29]): 24 nM
IC50 (Dihydrofolate reductase [30]): 1100 nM
SI [31]: 280
SI [32]: 46
SI [33]: 39

IC50 (Dihydrofolate reductase [35]): 250000 nM
Compound: Nc1nc(N)c2nc(CSc3ccc(Sc4ccccc4)cc3)cnc2n1
IC50 [34]: 770 nM
SI [26]: 320

Compound: CCCOc1cc(NCc2cnc3nc(N)nc(N)c3c2C)cc(OCCC)c1
IC50 (Dihydrofolate reductase [12]): 0.19 nM
SI [36]: 7300

Compound: Nc1nc(N)c2nc(CN3c4ccccc4C=Cc4cc(OCCCC(=O)O)ccc43)cnc2n1
IC50 [37]: 9.9 nM
IC50 (Dihydrofolate reductase [38]): 1.1 nM
IC50 (Dihydrofolate reductase [39]): 1500 nM
IC50 (Dihydrofolate reductase [40]): 2 nM

Compound: Nc1nc(N)c2nc(CN3c4ccccc4C=Cc4cc(OCC(=O)O)ccc43)cnc2n1
IC50 [41]: 17 nM
IC50 (Dihydrofolate reductase [42]): 8.2 nM
IC50 (Dihydrofolate reductase [43]): 21 nM
IC50 (Dihydrofolate reductase [44]): 280 nM
SI [45]: 34
SI [46]: 13
SI [47]: 16

Compound: CCOc1cc(Cc2cnc(N)nc2N)cc(OCC)c1-n1cccc1 [EPIROPRIM]
IC50 [48]: 900 nM
IC50 (Dihydrofolate reductase [49]): 600000 nM
IC50 (Dihydrofolate reductase [50]): 600000 nM
IC50 (Dihydrofolate reductase [12]): 4.1 nM
SI [26]: 670

Reference: ChEMBL document CHEMBL1149188, “Synthesis of 2,4-diamino-6-[2'-O-(omega-carboxyalkyl)oxydibenz[b,f]azepin-5-yl]methylpteridines as potent and selective inhibitors of Pneumocystis carinii, Toxoplasma gondii, and Mycobacterium avium dihydrofolate reductase” (J Med Chem, 2004)
